# Data from US6716411B2, “Method for finding nucleotide synthesis inhibitors having fewer side effects” (Aventis Pharma Deustschland GmbH, priority 1999, dated 2004).
# Tested on: pemphigus vulgaris
# Test: Observation of leflunomide treatment in humans
# Format: in vivo
# Conditions: one patient
# Protocol: This diarrhea adversely affected the quality of life of the patient. Because of the problems caused by this side effect, an attempt was made, after more than two years' therapy with a constant dose of 20 mg of leflunomide per day, to end the therapy.
# This observation was surprising, as the active metabolite of leflunomide, compound 1, has a half-life of approximately 14 days in humans. Furthermore, in this patient the blood levels of the active metabolite of leflunomide were repeatedly determined in the relatively high range between 70 mg/l and 85 mg/l.
smiles,measurement,setting,value
"Cc1oncc1C(=O)Nc1ccc(C(F)(F)F)cc1 [leflunomide, N-(4-trifluoromethylphenyl)-5-methylisoxazole-4-carboxamide]",side effect of treatment,20 mg of leflunomide per day,permanent diarrhea
same,symptoms of pemphigus vulgaris under therapy,20 mg of leflunomide per day,completely disappeared
same,pemphigus vulgaris four days following discontinuation,after more than two years' therapy,occurred again severely
